According to BindingDB's records for doi:10.1021/jm00083a023 (Warner-Lambert, 1992):

Test: Compound was evaluated for the inhibition of serum-opsonized zymosan stimulated myeloperoxidase release from human neutrophil

Question: Which IC50 does the source give for `COc1ccc2sc(C(=O)Nc3nnn[nH]3)c(OC(C)C)c2c1` here?
Answer: The IC50 was 7.5 µM.
